Results as given in the kinase profiling compilation of Christmann-Franck et al. (2016).
Several values for one entry are separate records, joined by “and”; a condition that tells them apart may be missing. Equal values may be shown once.

Legend:
Assay in all cases: radiometric filter-binding kinase assay, Kinase HotSpot
Conditions in all cases: compound 0.5 µM; ATP 10 µM
FLT1 (human) = FLT1 (human) (UniProt P17948)
CDK1 CCNA2 (human) = CDK1 CCNA2 (human) (UniProt P06493+P20248)
TSSK2 (human) = TSSK2 (human) (UniProt Q96PF2)
TSSK2 (human), sequence (Q96PF2 whole entry, looked up): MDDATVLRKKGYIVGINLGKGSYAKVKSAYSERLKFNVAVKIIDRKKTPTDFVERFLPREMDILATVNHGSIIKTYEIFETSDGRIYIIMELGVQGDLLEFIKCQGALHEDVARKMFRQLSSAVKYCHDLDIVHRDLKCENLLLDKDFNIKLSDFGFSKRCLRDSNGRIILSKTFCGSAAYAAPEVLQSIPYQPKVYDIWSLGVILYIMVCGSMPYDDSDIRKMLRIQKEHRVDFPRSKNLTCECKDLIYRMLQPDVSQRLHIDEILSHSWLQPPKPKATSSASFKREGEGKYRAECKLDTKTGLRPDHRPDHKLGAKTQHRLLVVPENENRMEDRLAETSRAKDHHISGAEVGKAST

MAP4K4 (human) = MAP4K4 (human) (UniProt O95819)
CDK4 CCND3 (human) = CDK4 CCND3 (human) (UniProt P30281+P11802)
CDK4 CCND3 (human), sequence (P11802 whole entry, looked up): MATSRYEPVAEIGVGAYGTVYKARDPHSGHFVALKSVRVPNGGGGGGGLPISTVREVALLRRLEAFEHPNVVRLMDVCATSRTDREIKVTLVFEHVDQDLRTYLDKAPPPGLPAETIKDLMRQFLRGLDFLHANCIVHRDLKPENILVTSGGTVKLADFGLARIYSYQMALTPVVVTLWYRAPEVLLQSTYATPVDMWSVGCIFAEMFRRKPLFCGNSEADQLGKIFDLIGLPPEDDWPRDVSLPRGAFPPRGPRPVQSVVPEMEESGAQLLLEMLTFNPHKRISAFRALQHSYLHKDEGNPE
CDK4 CCND3 (human), sequence (P30281 whole entry, looked up): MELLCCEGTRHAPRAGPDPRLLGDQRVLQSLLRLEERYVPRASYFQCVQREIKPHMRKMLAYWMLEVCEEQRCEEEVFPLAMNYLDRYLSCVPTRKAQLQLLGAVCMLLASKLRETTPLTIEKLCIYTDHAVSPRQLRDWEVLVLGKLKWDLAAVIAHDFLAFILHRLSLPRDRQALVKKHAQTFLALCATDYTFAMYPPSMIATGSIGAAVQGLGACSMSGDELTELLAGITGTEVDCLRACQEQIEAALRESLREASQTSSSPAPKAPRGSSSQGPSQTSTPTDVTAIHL

MAP4K2 (human) = MAP4K2 (human) (UniProt Q12851)
CSNK2A1 (human) = CSNK2A1 (human) (UniProt P68400)
CSNK2A1 (human), sequence (P68400 whole entry, looked up): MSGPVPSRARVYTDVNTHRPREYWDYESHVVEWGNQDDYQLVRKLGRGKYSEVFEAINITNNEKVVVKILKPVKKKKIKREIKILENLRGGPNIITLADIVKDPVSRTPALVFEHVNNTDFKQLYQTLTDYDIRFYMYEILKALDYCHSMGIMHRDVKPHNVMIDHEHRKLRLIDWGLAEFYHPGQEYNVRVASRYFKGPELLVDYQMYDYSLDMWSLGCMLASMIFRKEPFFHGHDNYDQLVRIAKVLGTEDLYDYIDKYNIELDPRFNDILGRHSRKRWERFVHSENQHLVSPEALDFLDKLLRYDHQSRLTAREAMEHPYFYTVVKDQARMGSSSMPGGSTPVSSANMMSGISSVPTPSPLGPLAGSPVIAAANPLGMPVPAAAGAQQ

ACVR1 (human) = ACVR1 (human) (UniProt Q04771)
SRPK1 (human) = SRPK1 (human) (UniProt Q96SB4)
FRK (human) = FRK (human) (UniProt P42685)
FYN (human) = FYN (human) (UniProt P06241)
CHEK1 (human) = CHEK1 (human) (UniProt O14757)
MAPKAPK2 (human) = MAPKAPK2 (human) (UniProt P49137)
PRKD3 (human) = PRKD3 (human) (UniProt O94806)
PRKD3 (human), sequence (O94806 whole entry, looked up): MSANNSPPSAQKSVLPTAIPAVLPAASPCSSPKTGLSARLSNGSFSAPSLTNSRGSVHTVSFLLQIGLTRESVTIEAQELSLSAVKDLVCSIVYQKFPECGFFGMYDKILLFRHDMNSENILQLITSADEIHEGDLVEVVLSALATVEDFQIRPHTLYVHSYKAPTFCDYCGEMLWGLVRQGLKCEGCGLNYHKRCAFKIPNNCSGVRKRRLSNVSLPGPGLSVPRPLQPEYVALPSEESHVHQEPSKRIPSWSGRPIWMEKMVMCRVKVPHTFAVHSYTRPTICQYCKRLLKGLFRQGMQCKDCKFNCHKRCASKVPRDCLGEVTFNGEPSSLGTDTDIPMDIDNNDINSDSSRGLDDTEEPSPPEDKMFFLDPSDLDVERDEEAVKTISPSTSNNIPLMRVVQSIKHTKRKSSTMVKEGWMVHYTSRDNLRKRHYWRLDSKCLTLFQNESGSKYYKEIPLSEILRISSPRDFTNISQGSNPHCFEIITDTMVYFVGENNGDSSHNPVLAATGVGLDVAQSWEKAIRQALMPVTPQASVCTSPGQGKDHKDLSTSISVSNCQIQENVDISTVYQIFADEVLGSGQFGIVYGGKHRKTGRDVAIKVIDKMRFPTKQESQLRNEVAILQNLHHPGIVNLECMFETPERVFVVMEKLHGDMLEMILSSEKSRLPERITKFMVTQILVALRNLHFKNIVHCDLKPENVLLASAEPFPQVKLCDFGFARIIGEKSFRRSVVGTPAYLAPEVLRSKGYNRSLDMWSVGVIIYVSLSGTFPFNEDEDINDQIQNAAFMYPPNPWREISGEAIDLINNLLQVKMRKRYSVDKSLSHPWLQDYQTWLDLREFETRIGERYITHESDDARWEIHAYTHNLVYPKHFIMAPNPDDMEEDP

PNCK (human) = PNCK (human) (UniProt Q6P2M8)
MAPK1 (human) = MAPK1 (human) (UniProt P28482)
AURKC (human) = AURKC (human) (UniProt Q9UQB9)
STK16 (human) = STK16 (human) (UniProt O75716)
RPS6KA4 KD2 (human) = RPS6KA4 KD2 (human) (UniProt O75676)
CDK6 CCND3 (human) = CDK6 CCND3 (human) (UniProt P30281+Q00534)
PRKG1 (human) = PRKG1 (human) (UniProt Q13976)
PRKG1 (human), sequence (Q13976 whole entry, looked up): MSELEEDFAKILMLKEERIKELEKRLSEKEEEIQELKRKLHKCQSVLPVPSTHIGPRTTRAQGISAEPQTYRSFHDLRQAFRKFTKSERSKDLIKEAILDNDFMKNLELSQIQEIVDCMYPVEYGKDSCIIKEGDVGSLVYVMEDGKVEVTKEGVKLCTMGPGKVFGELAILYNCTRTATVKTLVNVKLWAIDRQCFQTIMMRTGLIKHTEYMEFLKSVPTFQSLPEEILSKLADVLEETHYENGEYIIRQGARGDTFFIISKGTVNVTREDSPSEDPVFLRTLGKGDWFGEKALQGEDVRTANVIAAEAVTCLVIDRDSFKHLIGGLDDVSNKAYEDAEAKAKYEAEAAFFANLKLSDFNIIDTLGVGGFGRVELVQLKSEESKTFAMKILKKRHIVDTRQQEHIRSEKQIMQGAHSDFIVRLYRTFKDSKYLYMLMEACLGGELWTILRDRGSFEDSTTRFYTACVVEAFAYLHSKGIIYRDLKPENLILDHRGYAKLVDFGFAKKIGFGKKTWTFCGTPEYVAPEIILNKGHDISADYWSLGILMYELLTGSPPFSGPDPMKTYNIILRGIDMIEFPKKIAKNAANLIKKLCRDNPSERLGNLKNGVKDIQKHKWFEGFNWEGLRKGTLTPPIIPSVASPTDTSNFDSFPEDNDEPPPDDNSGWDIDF

GRK6 (human) = GRK6 (human) (UniProt P43250)
CSNK1A1 (human) = CSNK1A1 (human) (UniProt P48729)
MAPK10 (human) = MAPK10 (human) (UniProt P53779)
MAPK10 (human), sequence (P53779 whole entry, looked up): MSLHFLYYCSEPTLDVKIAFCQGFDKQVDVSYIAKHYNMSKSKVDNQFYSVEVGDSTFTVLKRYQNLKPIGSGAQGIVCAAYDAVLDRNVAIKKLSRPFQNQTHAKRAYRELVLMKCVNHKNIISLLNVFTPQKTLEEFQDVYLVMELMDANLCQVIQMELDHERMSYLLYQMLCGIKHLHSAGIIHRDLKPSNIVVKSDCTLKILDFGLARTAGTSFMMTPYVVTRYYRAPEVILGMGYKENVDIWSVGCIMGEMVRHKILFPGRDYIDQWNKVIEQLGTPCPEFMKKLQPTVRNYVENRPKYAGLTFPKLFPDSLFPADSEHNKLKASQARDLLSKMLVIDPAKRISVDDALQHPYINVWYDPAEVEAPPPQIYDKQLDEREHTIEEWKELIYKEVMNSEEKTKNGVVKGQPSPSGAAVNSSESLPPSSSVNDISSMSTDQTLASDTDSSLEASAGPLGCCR

PRKCA (human) = PRKCA (human) (UniProt P17252)
FGR (human) = FGR (human) (UniProt P09769)
FLT3 (human) = FLT3 (human) (UniProt P36888)
CDK9 CCNT1 (human) = CDK9 CCNT1 (human) (UniProt P50750+O60563)
PAK2 (human) = PAK2 (human) (UniProt Q13177)
ERBB2 (human) = ERBB2 (human) (UniProt P04626)
MAPK13 (human) = MAPK13 (human) (UniProt O15264)
TGFBR1 (human) = TGFBR1 (human) (UniProt P36897)
EPHB3 (human) = EPHB3 (human) (UniProt P54753)
RPS6KA3 KD1 KD2 (human) = RPS6KA3 KD1 KD2 (human) (UniProt P51812)
CAMK2A (human) = CAMK2A (human) (UniProt Q9UQM7)
ROCK1 (human) = ROCK1 (human) (UniProt Q13464)
EPHA5 (human) = EPHA5 (human) (UniProt P54756)
RIPK2 (human) = RIPK2 (human) (UniProt O43353)
RIPK2 (human), sequence (O43353 whole entry, looked up): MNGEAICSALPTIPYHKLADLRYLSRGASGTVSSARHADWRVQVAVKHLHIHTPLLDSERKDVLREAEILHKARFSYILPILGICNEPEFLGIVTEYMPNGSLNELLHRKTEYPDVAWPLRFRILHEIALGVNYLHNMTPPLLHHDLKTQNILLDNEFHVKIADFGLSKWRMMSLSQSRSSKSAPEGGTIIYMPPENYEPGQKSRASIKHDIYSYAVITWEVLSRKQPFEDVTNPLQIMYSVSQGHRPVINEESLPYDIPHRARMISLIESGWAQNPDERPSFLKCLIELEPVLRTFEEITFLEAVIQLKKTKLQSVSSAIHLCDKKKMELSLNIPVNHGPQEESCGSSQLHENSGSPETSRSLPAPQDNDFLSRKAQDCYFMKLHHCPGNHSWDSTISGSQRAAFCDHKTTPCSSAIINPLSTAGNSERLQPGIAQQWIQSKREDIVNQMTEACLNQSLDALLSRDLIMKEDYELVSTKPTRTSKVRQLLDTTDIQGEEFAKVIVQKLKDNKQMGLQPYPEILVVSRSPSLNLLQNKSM

PRKD1 (human) = PRKD1 (human) (UniProt Q15139)
PRKD1 (human), sequence (Q15139 whole entry, looked up): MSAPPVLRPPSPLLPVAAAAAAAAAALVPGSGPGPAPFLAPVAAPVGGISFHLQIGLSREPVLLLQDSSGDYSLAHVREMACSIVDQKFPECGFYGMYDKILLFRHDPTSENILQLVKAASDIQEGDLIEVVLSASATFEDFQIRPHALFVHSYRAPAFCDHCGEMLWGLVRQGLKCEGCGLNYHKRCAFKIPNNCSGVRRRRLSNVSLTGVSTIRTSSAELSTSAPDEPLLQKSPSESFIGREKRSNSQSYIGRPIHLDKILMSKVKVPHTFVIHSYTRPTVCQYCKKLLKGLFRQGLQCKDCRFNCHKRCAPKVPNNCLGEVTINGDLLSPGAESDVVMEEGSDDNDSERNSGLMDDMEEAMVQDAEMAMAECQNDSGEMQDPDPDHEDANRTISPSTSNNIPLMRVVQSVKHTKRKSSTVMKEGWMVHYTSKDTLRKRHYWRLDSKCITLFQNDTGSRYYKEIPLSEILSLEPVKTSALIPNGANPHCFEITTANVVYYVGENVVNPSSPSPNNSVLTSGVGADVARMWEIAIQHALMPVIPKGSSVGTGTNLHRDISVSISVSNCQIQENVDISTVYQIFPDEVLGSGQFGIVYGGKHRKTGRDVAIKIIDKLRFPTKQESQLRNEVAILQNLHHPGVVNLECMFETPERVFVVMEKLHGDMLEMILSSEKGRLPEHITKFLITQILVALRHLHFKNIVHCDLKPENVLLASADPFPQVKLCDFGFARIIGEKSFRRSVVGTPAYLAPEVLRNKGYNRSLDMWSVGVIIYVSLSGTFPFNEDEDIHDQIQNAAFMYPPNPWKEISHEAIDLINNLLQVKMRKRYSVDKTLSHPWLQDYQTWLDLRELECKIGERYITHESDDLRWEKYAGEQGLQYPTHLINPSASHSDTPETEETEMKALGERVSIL

MAPKAPK3 (human) = MAPKAPK3 (human) (UniProt Q16644)
MAP4K5 (human) = MAP4K5 (human) (UniProt Q9Y4K4)

Row | SMILES | residual activity (FLT1 (human)) [%] | residual activity (CDK1 CCNA2 (human)) [%] | residual activity (TSSK2 (human)) [%] | residual activity (MAP4K4 (human)) [%] | residual activity (CDK4 CCND3 (human)) [%] | residual activity (MAP4K2 (human)) [%] | residual activity (CSNK2A1 (human)) [%] | residual activity (ACVR1 (human)) [%] | residual activity (SRPK1 (human)) [%] | residual activity (FRK (human)) [%] | residual activity (FYN (human)) [%] | residual activity (MAPKAPK2 (human)) [%] | residual activity (PRKD3 (human)) [%] | residual activity (PNCK (human)) [%] | residual activity (MAPK1 (human)) [%] | residual activity (AURKC (human)) [%] | residual activity (STK16 (human)) [%] | residual activity (RPS6KA4 KD2 (human)) [%] | residual activity (CDK6 CCND3 (human)) [%] | residual activity (PRKG1 (human)) | other results
1 | O=c1cc(N2CCNCC2)oc2c(-c3ccccc3)cccc12 | 86.6 | 84.8 | 101 | 92.7 | 101 | 87.6 | 89.9 | 90.3 | 106 | 105 | 104 | 103 | 88.6 | 99.8 | 65.4 | 97.6 | 97.4 | 117 | 93.8 | 100% and 102% | residual activity (CHEK1 (human)): 104%; residual activity (GRK6 (human)): 89.6%; residual activity (CSNK1A1 (human)): 104%; residual activity (MAPK10 (human)): 85%; residual activity (PRKCA (human)): 99.1%; residual activity (FGR (human)): 99.9%; residual activity (FLT3 (human)): 108%; residual activity (CDK9 CCNT1 (human)): 98.8%; residual activity (PAK2 (human)): 99.8%; residual activity (ERBB2 (human)): 95.5%; residual activity (MAPK13 (human)): 104%; residual activity (TGFBR1 (human)): 97.3%; residual activity (EPHB3 (human)): 94.5%; residual activity (RPS6KA3 KD1 KD2 (human)): 101%; residual activity (CAMK2A (human)): 104%; residual activity (ROCK1 (human)): 104%; residual activity (EPHA5 (human)): 109%; residual activity (RIPK2 (human)): 82.9%; residual activity (PRKD1 (human)): 91.9%
2 | COc1ccc(-c2cnc3c(-c4ccsc4)cnn3c2)cc1 | 75.7 | 87.4 | 99 | 28.4 | 82.9 | 74.8 | 101 | 91.1 | 101 | 85.6 | 86.3 | 95.8 | 100 | 90.9 | 99.2 | 75.3 | 66.9 | 98.7 | 33.4 | 86.5% and 89.1% | residual activity (MAPKAPK3 (human)): 97.5%; residual activity (CHEK1 (human)): 90.8%; residual activity (GRK6 (human)): 99.9%; residual activity (CSNK1A1 (human)): 101%; residual activity (PRKCA (human)): 101%; residual activity (FGR (human)): 72.3%; residual activity (FLT3 (human)): 11.1%; residual activity (CDK9 CCNT1 (human)): 73.8%; residual activity (PAK2 (human)): 79.1%; residual activity (ERBB2 (human)): 102%; residual activity (MAPK13 (human)): 93.5%; residual activity (TGFBR1 (human)): 98%; residual activity (EPHB3 (human)): 99.4%; residual activity (RPS6KA3 KD1 KD2 (human)): 83.6%; residual activity (MAP4K5 (human)): 60.3%; residual activity (CAMK2A (human)): 96.6%; residual activity (ROCK1 (human)): 95.7%; residual activity (EPHA5 (human)): 89.1%; residual activity (RIPK2 (human)): 56.8%; residual activity (PRKD1 (human)): 95.1%
3 | CC(C)(C)c1nc2c3ccc(F)cc3c3c(=O)[nH]ccc3c2[nH]1 | 92.3 | 89.4 | 92.5 | 38.4 | 95.2 | 66.2 | 82.9 | 135 | 115 | 104 | 52.3 | 99.6 | 10.8 | 112 | 96.1 | 29.3 | 90.1 | 44.7 | 87.8 | 40.2% and 52.3% | residual activity (MAPKAPK3 (human)): 94.4%; residual activity (CHEK1 (human)): 22.9%; residual activity (GRK6 (human)): 48.2%; residual activity (CSNK1A1 (human)): 94.6%; residual activity (MAPK10 (human)): 107%; residual activity (PRKCA (human)): 65.6%; residual activity (FGR (human)): 76.9%; residual activity (FLT3 (human)): 13.6%; residual activity (CDK9 CCNT1 (human)): 100%; residual activity (PAK2 (human)): 88.8%; residual activity (ERBB2 (human)): 109%; residual activity (MAPK13 (human)): 104%; residual activity (TGFBR1 (human)): 102%; residual activity (EPHB3 (human)): 87.1%; residual activity (MAP4K5 (human)): 65.8%; residual activity (CAMK2A (human)): 35.1%; residual activity (ROCK1 (human)): 74.9%; residual activity (EPHA5 (human)): 100%; residual activity (RIPK2 (human)): 34.6%; residual activity (PRKD1 (human)): 8.19%
4 | Nc1nc(Nc2ccc(S(N)(=O)=O)cc2)nn1C(=S)Nc1c(F)cccc1F | 11.4 | -0.154 | 91.3 | 4.46 | 3.67 | 2.13 | 76.6 | 60.4 | 25.9 | 70.6 | 24.8 | 91.1 | 7.37 | 89.1 | 76.2 | 16.2 | 42.5 | 42.8 | 7.69 | 85.1% and 91.3% | residual activity (MAPKAPK3 (human)): 89.6%; residual activity (GRK6 (human)): 89.4%; residual activity (MAPK10 (human)): 105%; residual activity (PRKCA (human)): 46.2%; residual activity (FGR (human)): 17.1%; residual activity (FLT3 (human)): 1.07%; residual activity (CDK9 CCNT1 (human)): 15.6%; residual activity (PAK2 (human)): 26.4%; residual activity (ERBB2 (human)): 104%; residual activity (MAPK13 (human)): 77.1%; residual activity (TGFBR1 (human)): 81.8%; residual activity (EPHB3 (human)): 90.4%; residual activity (RPS6KA3 KD1 KD2 (human)): -0.692%; residual activity (MAP4K5 (human)): 1.71%; residual activity (CAMK2A (human)): 14.3%; residual activity (ROCK1 (human)): 0.17%; residual activity (EPHA5 (human)): 56.7%; residual activity (RIPK2 (human)): 19.7%; residual activity (PRKD1 (human)): 7.79%
5 | NC(=O)c1ccc(N(C(N)=O)c2c(F)cccc2F)nc1-c1ccc(F)cc1F | 102 | 101 | 88.6 | 108 | 98.4 | 108 | 111 | 105 | 99 | 106 | 110 | 98.9 | 85.1 | 108 | 85.7 | 83.8 | 100 | 99 | 119 | 88.1% and 95.7% | residual activity (MAPKAPK3 (human)): 99.1%; residual activity (CHEK1 (human)): 89.2%; residual activity (GRK6 (human)): 97.1%; residual activity (MAPK10 (human)): 98.4%; residual activity (PRKCA (human)): 86%; residual activity (FGR (human)): 94.7%; residual activity (FLT3 (human)): 97.2%; residual activity (CDK9 CCNT1 (human)): 96.7%; residual activity (PAK2 (human)): 101%; residual activity (ERBB2 (human)): 106%; residual activity (MAPK13 (human)): 94%; residual activity (TGFBR1 (human)): 96.7%; residual activity (EPHB3 (human)): 65.8%; residual activity (RPS6KA3 KD1 KD2 (human)): 99.8%; residual activity (MAP4K5 (human)): 98.3%; residual activity (CAMK2A (human)): 90.9%; residual activity (ROCK1 (human)): 108%; residual activity (EPHA5 (human)): 105%; residual activity (RIPK2 (human)): 101%; residual activity (PRKD1 (human)): 97.7%
